# Laboratory results: ChEMBL document CHEMBL2094195, “Structure-activity relationship data for a series of N-(phenylmehtyl)-2-(1H-pyrazol-4-yl)acetamide and N-(phenylmethyl)2-(4-isoxazolyl) acetamide antagonists of the P2X7 receptor (Supplementary Bioactivity Data for publication CHEMBL1157114)”
# Target: T1, P2X purinoceptor 7 (Homo sapiens, UniProt Q99572)
# T1 sequence (Q99572 whole entry): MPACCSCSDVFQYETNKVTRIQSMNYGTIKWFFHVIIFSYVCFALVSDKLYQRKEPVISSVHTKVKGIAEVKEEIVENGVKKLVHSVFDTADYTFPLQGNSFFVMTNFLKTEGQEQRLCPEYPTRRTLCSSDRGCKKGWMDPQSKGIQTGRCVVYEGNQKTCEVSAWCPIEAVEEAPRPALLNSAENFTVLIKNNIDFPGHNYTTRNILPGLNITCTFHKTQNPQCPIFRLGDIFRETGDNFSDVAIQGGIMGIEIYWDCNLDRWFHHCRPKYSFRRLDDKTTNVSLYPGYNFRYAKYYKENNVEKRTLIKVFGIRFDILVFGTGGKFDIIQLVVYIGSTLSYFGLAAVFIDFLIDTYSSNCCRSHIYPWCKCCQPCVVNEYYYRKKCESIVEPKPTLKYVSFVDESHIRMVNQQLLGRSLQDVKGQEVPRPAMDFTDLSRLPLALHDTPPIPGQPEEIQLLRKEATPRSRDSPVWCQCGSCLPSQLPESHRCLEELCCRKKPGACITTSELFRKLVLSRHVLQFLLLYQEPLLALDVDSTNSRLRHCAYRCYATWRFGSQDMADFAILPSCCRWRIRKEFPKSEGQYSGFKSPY
# Experiment: SUPPLEMENTARY: Inhibition of human P2X7 receptor assessed as inhibition of ethidium bromide accumulation. Same assay as CHEMBL1103860
row,Structure (SMILES),IC50
1,Cc1n[nH]c(C)c1CC(=O)N[C@H]1CCCc2ccccc21,100 nM
2,Cc1n[nH]c(C)c1CC(=O)NCc1ccc(F)c(F)c1F,63.1 nM
3,Cc1n[nH]c(C)c1CC(=O)NCc1ccccc1Br,251 nM
4,Cc1n[nH]c(C)c1CC(=O)NCc1cc(Cl)cc(Cl)c1,1000 nM
5,Cc1n[nH]c(C)c1CC(=O)NCc1c(Cl)cccc1Cl,31.6 nM
6,Cc1cccc(Cl)c1CNC(=O)Cc1c(C)n[nH]c1C,15.8 nM
7,Cc1n[nH]c(C)c1CC(=O)NCc1cc(F)ccc1Cl,398 nM
8,Cc1[nH]nc(C(C)(C)C)c1CC(=O)NCc1ccc(F)cc1Cl,158 nM
9,Cc1n[nH]c(C)c1CC(=O)NCc1cccc(Cl)c1C,5.01 nM
10,Cc1n[nH]c(C)c1CC(=O)NCc1c(F)cccc1Cl,158 nM
11,Cc1n[nH]c(C)c1CC(=O)NCc1cc(Cl)ccc1Cl,316 nM
12,Cc1noc(C)c1CC(=O)NCc1ccccc1Br,501 nM
13,Cc1n[nH]c(C)c1CC(=O)NCc1ccc(C(F)(F)F)cc1,398 nM
14,Cc1ccccc1CNC(=O)Cc1c(C)noc1C,501 nM
15,Cc1ccc(CNC(=O)Cc2c(C)n[nH]c2C)c(C)c1,158 nM
16,Cc1ccc(F)c(CNC(=O)Cc2c(C)n[nH]c2C)c1Cl,79.4 nM
17,Cc1n[nH]c(C)c1CC(=O)NCc1ccc(Br)cc1F,50.1 nM
18,Cc1ccc(Cl)c(CNC(=O)Cc2c(C)n[nH]c2C)c1F,631 nM
19,Cc1ccccc1CNC(=O)Cc1c(C)n[nH]c1C,158 nM
20,CCc1noc(CC)c1CC(=O)NCc1ccc(F)cc1Cl,39.8 nM
21,CC(C)c1noc(C(C)C)c1CC(=O)NCc1ccc(F)cc1Cl,158 nM
22,CCc1n[nH]c(CC)c1CC(=O)NCc1ccc(F)c(F)c1F,31.6 nM
23,CC(C)c1n[nH]c(C(C)C)c1CC(=O)NCc1ccc(F)c(F)c1F,158 nM
24,Cc1n[nH]c(C(F)(F)F)c1CC(=O)NCc1cccc(C(F)(F)F)c1Cl,2.51 nM
25,Cc1n[nH]c(C(F)(F)F)c1CC(=O)NCc1ccc(F)c(F)c1Cl,5.01 nM

# The remaining lines, values ahead:
row,IC50,Structure (SMILES)
1,200 nM,Cc1n[nH]c(C)c1CC(=O)NCc1ccc(Cl)c(Cl)c1
2,158 nM,Cc1noc(C)c1CC(=O)NCc1ccc(F)c(F)c1F
3,25.1 nM,Cc1cccc(Cl)c1CNC(=O)Cc1c(C)noc1C
4,25.1 nM,Cc1noc(C)c1CC(=O)NCc1cccc(Cl)c1C
5,316 nM,Cc1noc(C)c1CC(=O)NCc1ccc(Cl)c(Cl)c1
6,100 nM,Cc1noc(C)c1CC(=O)NCc1ccccc1Cl
7,398 nM,Cc1noc(C)c1CC(=O)NCc1c(F)cccc1Cl
8,63.1 nM,Cc1noc(C)c1CC(=O)NCc1c(Cl)cccc1Cl
9,158 nM,Cc1noc(C)c1CC(=O)NCc1ccc(Cl)c(C(F)(F)F)c1
10,200 nM,Cc1noc(C)c1CC(=O)NCc1ccc(F)cc1C(F)(F)F
11,50.1 nM,Cc1noc(C)c1CC(=O)NCc1ccc(F)cc1Br
12,31.6 nM,Cc1noc(C)c1CC(=O)NCc1ccc(F)c(F)c1Cl
13,31.6 nM,Cc1noc(C)c1CC(=O)NCc1cccc(Cl)c1Cl
14,501 nM,Cc1noc(C)c1CC(=O)NCc1ccc(F)cc1F
15,794 nM,Cc1noc(C)c1CC(=O)NCc1ccc(Cl)cc1
16,251 nM,Cc1ccc(CNC(=O)Cc2c(C)noc2C)c(C)c1
17,794 nM,Cc1ccc(CNC(=O)Cc2c(C)noc2C)c(F)c1F
18,25.1 nM,Cc1cc(Cl)ccc1CNC(=O)Cc1c(C)noc1C
19,100 nM,Cc1cc(F)ccc1CNC(=O)Cc1c(C)noc1C
20,1000 nM,Cc1noc(C)c1CC(=O)NCc1cccc(F)c1C
21,158 nM,Cc1ccc(CNC(=O)Cc2c(C)noc2C)c(F)c1
22,200 nM,Cc1cccc(CNC(=O)Cc2c(C)noc2C)c1C
23,200 nM,Cc1ccc(F)c(CNC(=O)Cc2c(C)noc2C)c1Cl
24,398 nM,Cc1noc(C)c1CC(=O)NCc1ccc(C(F)(F)F)c(F)c1
25,31.6 nM,Cc1noc(C)c1CC(=O)NCc1cccc(C(F)(F)F)c1F
26,200 nM,Cc1noc(C)c1CC(=O)NCc1cccc(Cl)c1F
27,39.8 nM,Cc1noc(C)c1CC(=O)NCc1ccc(F)c(Cl)c1F
28,10 nM,Cc1noc(C)c1CC(=O)NCc1cccc(C(F)(F)F)c1C
29,50.1 nM,Cc1n[nH]c(C)c1CC(=O)NCc1ccc(F)c(C(F)(F)F)c1
